From US20090227669A1, “Compositions and Methods for Perioperative Bladder Instillation” (THE UNIVERSITY OF TOLEDO, priority 2004, published 2009)

Assays:
[1] = test system: AY-27 rat transitional cancer cell line; test: AY-27 cell survival/growth under EGCG treatment; format: cell-based
AY-27 cells [2] = test: DNA ladder assay in AY-27 cells; format: cell-based, rat
AY-27 cells [3] = test: Intravesical EGCG instillation after AY-27 tumor cell implantation in cauterized rat bladder; format: in vivo, Fisher 344 rats
Procedure: Single Polyphenol (EGCG): Fisher 344 rats were maintained under guidelines of the Medical College of Ohio Institutional Animal Care and Use Committee. A combination ketamine (80 mg/kg)/xylazine (12 mg/kg) intraperitoneal injection was used to anesthetize the rats prior to surgery. The abdomen was shaved and prepped with an iodine solution under sterile conditions. Oxytetracycline 20 mg was injected subcutaneously for antibacterial prophylaxis. Under 4× microscopic magnification, a 1.5 cm midline incision exposed the bladder. A sterile, 22 gauge Angiocath cannula was then advanced transurethrally. A blunt-tipped 24 gauge copper wire was then advanced through the catheter and a […] current was used to cauterize the bladder wall creating a small, white puckered area. The skin and muscular layers of the abdominal wall were closed with a running 4-0 silk suture.
AY-27 cells suspended in 0.25 cc of serum free RPMI-1640 medium were instilled transurethrally into 40 rats. The catheters were then capped and the tumor cells were allowed to dwell inside the bladder for 30 minutes. After tumor cell instillation, twelve rats (Group I) had two, separately hourly instillations of culture medium. Twenty-eight rats (Group II) were treated with a freshly prepared solution of 0.25 cc, 200 microM EGCG solution in RPLMI-1640 medium for 2 separate dwell times of one hour. […]

[4] = orally administered; along with at least five metabolites; cited from earlier work

O=C(O[C@@H]1Cc2c(O)cc(O)cc2O[C@@H]1c1cc(O)c(O)c(O)c1)c1cc(O)c(O)c(O)c1 [EGCG, epigallocatechin-gallate]
cellular growth of AY-27 cell line [1]: inhibits cellular growth
cellular survival ([1]; after two hours of treatment at all concentrations of EGCG): No cellular survival
banding pattern on DNA ladder assay (apoptosis) (AY-27 cells [2]): weak banding pattern
tumor growth rate (AY-27 cells [3]; 200 microM EGCG, 0.25 cc, 2 separate dwell times of one hour, euthanized three weeks later, n=28, controls 100%): 36%
incidence of bladder tumor implantation (AY-27 cells [3]; intravesical EGCG at 200 microM for 2 hours): significantly reduce
fraction of total administered EGCG found in urine [4]: 0.03-0.59%
